Tested on: NCI-H211 complex spheroid viability
Assay: Anticancer human tumor NCI-H211 cell line growth inhibition [LSD1];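 also: luminescent viability read after seven days of drug exposure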;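 as to viability, T/C: 100% = DMSO vehicle control viability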
Details: for IC50: curve of first compound; for viability, T/C: stronger effect = lower value
Method in brief: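 Multicellular complex spheroids of tumor cells with human endothelial cells (HUVEC) and mesenchymal stem cells; the LSD1 inhibitor iadademstat was combined with standard-of-care or investigational agents. Top concentration at or near clinical Cmax, half-log dilutions; final DMSO ≤0.25%.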

[1] = second compound 0.1 µM, first compound 0.0316 µM
[2] = second compound 0.1 µM, first compound 0.1 µM
[3] = second compound 0.1 µM, first compound 0.316 µM
[4] = second compound 0.1 µM, first compound 1 µM
[5] = second compound 0.1 µM, first compound 3.16 µM
[6] = second compound 0.1 µM, first compound 10 µM
[7] = second compound 0.316 µM, first compound 0.0316 µM
[8] = second compound 0.316 µM, first compound 0.1 µM
[9] = second compound 0.316 µM, first compound 0.316 µM
[10] = second compound 0.316 µM, first compound 1 µM
[11] = second compound 0.316 µM, first compound 3.16 µM
[12] = second compound 0.316 µM, first compound 10 µM
[13] = second compound 1 µM, first compound 0.0316 µM
[14] = second compound 1 µM, first compound 0.1 µM
[15] = second compound 1 µM, first compound 0.316 µM
[16] = second compound 1 µM, first compound 1 µM
[17] = second compound 1 µM, first compound 3.16 µM
[18] = second compound 1 µM, first compound 10 µM
[19] = second compound 3.16 µM, first compound 0.0316 µM
[20] = second compound 3.16 µM, first compound 0.1 µM
[21] = second compound 3.16 µM, first compound 0.316 µM
[22] = second compound 3.16 µM, first compound 1 µM
[23] = second compound 3.16 µM, first compound 3.16 µM
[24] = second compound 3.16 µM, first compound 10 µM
[25] = second compound 10 µM, first compound 0.0316 µM
[26] = second compound 10 µM, first compound 0.1 µM
[27] = second compound 10 µM, first compound 0.316 µM
[28] = second compound 10 µM, first compound 1 µM
[29] = second compound 10 µM, first compound 3.16 µM
[30] = second compound 10 µM, first compound 10 µM

| SMILES | IC50 (second compound 0.1 µM) [µM] | IC50 (second compound 0.316 µM) [µM] | IC50 (second compound 1 µM) [µM] | IC50 (second compound 3.16 µM) [µM] | IC50 (second compound 10 µM) [µM] | viability, T/C [1] [%] | viability, T/C [2] [%] | viability, T/C [3] [%] | viability, T/C [4] [%] | viability, T/C [7] [%] | viability, T/C [8] [%] | viability, T/C [9] [%] | viability, T/C [10] [%] | viability, T/C [13] [%] | viability, T/C [14] [%] | viability, T/C [15] [%] | viability, T/C [16] [%] | viability, T/C [19] [%] | viability, T/C [20] [%] | viability, T/C [21] [%] | further results |
| --- | --- | --- | --- | --- | --- | --- | --- | --- | --- | --- | --- | --- | --- | --- | --- | --- | --- | --- | --- | --- | --- |
| CC(C)c1c(-c2ccccc2)nc2c(C#N)c[nH]n2c1=O + NC1CC1c1ccc(-c2cccc(O)c2)cc1 | 6.12 | 6.66 | 2.93 | 6.42 | 3.8 | 86.7 | 66.5 | 70.5 | 66 | 73.7 | 75.5 | 69.9 | 61.9 | 74.3 | 64.2 | 63.4 | 69.8 | 83.6 | 57.1 | 74.8 | viability, T/C [5]: 54.9%; viability, T/C [6]: 45.3%; viability, T/C [11]: 63.1%; viability, T/C [12]: 43.9%; viability, T/C [17]: 48.7%; viability, T/C [18]: 37.5%; viability, T/C [22]: 63.5%; viability, T/C [23]: 59.6%; viability, T/C [24]: 44.3%; viability, T/C [25]: 52.1%; viability, T/C [26]: 62.4%; viability, T/C [27]: 64.5%; viability, T/C [28]: 58.8%; viability, T/C [29]: 47.2%; viability, T/C [30]: 41.7% |
| CC1COCCN1c1cc(-c2ccnn2C)c2ccnc(-c3ccn[nH]3)c2n1 (stereo not given) + NC1CC1c1ccc(-c2cccc(O)c2)cc1 | 0.00378 | 0.00351 | < 0.00316 | < 0.00316 | < 0.00316 | 6.31 | 4.68 | 3.56 | 3.19 | 6.09 | 4.56 | 4.43 | 4.27 | 6.6 | 4.61 | 7.13 | 4.1 | 6.53 | 4.92 | 4.52 | viability, T/C (second compound 0.1 µM, first compound 0.00316 µM): 56.3%; viability, T/C (second compound 0.1 µM, first compound 0.01 µM): 16.8%; viability, T/C (second compound 0.316 µM, first compound 0.00316 µM): 53.6%; viability, T/C (second compound 0.316 µM, first compound 0.01 µM): 14%; viability, T/C (second compound 1 µM, first compound 0.00316 µM): 47.7%; viability, T/C (second compound 1 µM, first compound 0.01 µM): 16.8%; viability, T/C (second compound 3.16 µM, first compound 0.00316 µM): 43.6%; viability, T/C (second compound 3.16 µM, first compound 0.01 µM): 14.1%; viability, T/C [22]: 4.59%; viability, T/C (second compound 10 µM, first compound 0.00316 µM): 34.5%; viability, T/C (second compound 10 µM, first compound 0.01 µM): 14.5%; viability, T/C [25]: 7.33%; viability, T/C [26]: 4.8%; viability, T/C [27]: 4.76%; viability, T/C [28]: 6.03% |
| COc1ccc([C@@H](O)c2cc(-c3ncnc4cc(N5CCOCC5)ccc34)c(F)cc2Cl)nn1 + NC1CC1c1ccc(-c2cccc(O)c2)cc1 | 4.47 | 4.05 | 3.57 | 2.49 | < 0.0316 | 62 | 63.6 | 75 | 89.8 | 59.7 | 52.7 | 62.2 | 73.5 | 67.3 | 67 | 72.2 | 76.8 | 54.5 | 53.1 | 59 | viability, T/C [5]: 65.8%; viability, T/C [6]: 13.6%; viability, T/C [11]: 59.9%; viability, T/C [12]: 12.2%; viability, T/C [17]: 54.8%; viability, T/C [18]: 9.71%; viability, T/C [22]: 60.4%; viability, T/C [23]: 48.2%; viability, T/C [24]: 8.23%; viability, T/C [25]: 51.2%; viability, T/C [26]: 38.8%; viability, T/C [27]: 51.6%; viability, T/C [28]: 48%; viability, T/C [29]: 36.7%; viability, T/C [30]: 3.23% |

— PubChem BioAssay AID1918940 (Molecular Pharmacology Branch, DTP, NCI, 2023)
